Read-outs that look alike come from different tables or passages of the source. Marks after values point to notes of the source that are not given here.
Columns and labels:
DNA = conditions: comparison of the three VO-oda compounds; cited from earlier work
[1] = system: MC3T3E1 derived from mouse calvaria; conditions: cited from earlier work
[2] = system: UMR106 derived from rat osteosarcoma cells; conditions: cited from earlier work; for Cytotoxicity, normal versus tumoral osteoblasts: MC3T3E1 (normal) versus UMR106 (tumoral); for Cellular proliferation: UMR106
human osteosarcoma cells = system: human osteosarcoma cells; parameters: method as in Yodoshi et al. [2007]; conditions: rank among the three VO-oda compounds; ref Yodoshi et al. [2007]; cited from earlier work
[3] = system: human osteosarcoma cell (MG-63); assay: BrdU test, cell proliferation; format: cell-based; conditions: 48 h
Procedure: (§1) The cell lines: two human osteosarcoma cell lines (MG-63 and HOS) and untransformed hFOB were used to assess an anti-proliferative and cytotoxic effect, respectively. hFOB cells were grown in a mixture of Dulbecco’s Modified Eagle’s Medium and Ham F12 medium (1:1 ratio), MG-63 and HOS in Eagle’s Minimum Essential Medium also containing sodium pyruvate 110 mg/L and supplemented with 10% fetal bovine serum, 6 μg/mL penicillin-G, and 10 μg/mL streptomycin.
(§2) Cultured cancer cells with 80–90% confluence were used for plating. The adherent cells were trypsinized to detach cells. 100 µL of cells were seeded into each well of the 96-wells plates (1–5 × 10^4 cells per well). The plate was maintained at 37 °C in a incubator for 48 h until 80–90% confluence. Then, old media were discarded and the cells were treated with tested compounds and cisplatin as positive control. The concentrations of investigated compounds used in experiments were carefully selected according to the results obtained from a preliminary concentration–response study (data not shown). […] Fresh solutions of cisplatin were made up for each experiment owing to its instability in water. […]
Fig. 8 The inhibition of the human osteosarcoma cell (MG-63) proliferation after an incubation with investigated compounds assessed with the BrdU-test. […] Data are expressed as mean values ± SD from three experiments. ***p < 0.001 versus control

[4] = system: human osteosarcoma cell (HOS); assay: BrdU test, cell proliferation; format: cell-based; conditions: 48 h
Procedure: as §1, §2
Fig. 9 The inhibition of the human osteosarcoma cell (HOS) proliferation after an incubation with investigated compounds assessed with the BrdU-test. […] Data are expressed as mean values ± SD from three experiments. ***p < 0.001 versus control

[5] = Potentiometric titration, equilibrium constants of complex species in aqueous solution; format: physicochemical; conditions: for Logarithm of equilibrium constant, reaction 1: A + H3O^+ ⇋ AH^+ + H2O (AH^+ = bpyH^+ or phenH^+) / Logarithm of equilibrium constant, reaction 2 ([drawing 1]) / Logarithm of equilibrium constant, reaction 3 ([drawing 2]): 298.15 K, ionic strength 0.1 M NaClO4, standard deviation in parentheses
Procedure: Potentiometric titrations were performed at 298.15 K by using Cerko Lab System microtitration unit fitted with 5‐mL Hamilton’s syringe and pH‐combined electrode (Schott‐BlueLine 16 pH type) All details for the measuring devices and the experimental setup were described in (Wyrzykowski et al. [2014]). The ionic strength was maintained at 0.1 M using NaClO4. The 6 mM [bpyH][VO(nta)(H2O)]H2O and [phenH][VO(nta)(H2O)](H2O)0.5 solutions (Vo = 5.0 mL) were potentiometrically titrated with a standardized NaOH solution (0.098 M). The concentration distribution of various complex species existing in the solution as a function of pH was obtained using the HySS program (Alderighi et al. [1999]).
The potentiometric titration method has been applied for studying the stability of [bpyH][VO(nta)(H2O)]H2O and [phenH][VO(nta)(H2O)](H2O)0.5 in aqueous solutions. The logarithm of the overall equilibrium constants of the complex species (Table 5) were refined by least-squares calculations using the Hyperquad2008 (ver. 5.2.19) computer program (Gans et al. [1996]).

[6] = system: animal and human cancer cell lines; parameters: method as in earlier work; conditions: ref Havelek et al. [2012]; Vinklarek et al. [2004]; Gleeson et al. [2009]; Palackova et al. [2007]; cited from earlier work
[7] = at 25 °C; cited from earlier work
[8] = system: tumoral cell lines of human origin; parameters: method as in Evangelou [2002]; D’Cruz and Uckun [2002]; Dong et al. [2000]; conditions: leukemia, breast, ovarian, prostate and testicular cancer cells; ref Evangelou [2002]; D’Cruz and Uckun [2002]; Dong et al. [2000]; cited from earlier work
[9] = system: streptozotocin-induced (STZ) diabetic rats; parameters: method as in Thompson and Orvig [2006]; conditions: oral, ref Thompson and Orvig [2006]; cited from earlier work

O=C([O-])COCC(=O)[O-].[O]=[V+2].c1cnc2c(c1)ccc1cccnc12 [VO(oda)(phen)]
DNA cleavage (nuclease activity) (DNA): stronger effect
Cellular proliferation ([1]; ref León et al. [2012b]): inhibition of the cellular proliferation
Cytotoxicity, normal versus tumoral osteoblasts ([2]; ref León et al. [2012b]): stronger in the normal than in the tumoral osteoblasts
Cellular proliferation ([2]; ref León et al. [2012b]): inhibition of the cellular proliferation
Antitumor action (human osteosarcoma cells): most potent antitumor action

O.O=C([O-])CN(CC(=O)[O-])CC(=O)[O-].[O]=[V+2].c1cnc2c(c1)ccc1ccc[nH+]c12 [[phenH][VO(nta)(H2O)](H2O)0.5]
Anti-proliferative activity (BrdU incorporation) ([3]; 1-100 μM): most effective anti-proliferative activity
Anti-proliferative activity compared with cis-Pt(NH3)2Cl2 ([3]; BrdU test): significantly higher
Anti-proliferative activity (BrdU incorporation) ([4]; 1-100 μM): most effective anti-proliferative activity
Anti-proliferative activity compared with cis-Pt(NH3)2Cl2 ([4]; BrdU test): significantly higher
Logarithm of equilibrium constant, reaction 1: A + H3O^+ ⇋ AH^+ + H2O (AH^+ = bpyH^+ or phenH^+) [5]: 5.00 (0.04)^a
Logarithm of equilibrium constant, reaction 2 ([drawing 1]) [5]: 7.93 (0.07)
Logarithm of equilibrium constant, reaction 3 ([drawing 2]) [5]: −19.91 (0.08)

[Cl-].[Cl-].[V+4].c1cc[cH-]c1.c1cc[cH-]c1 [[VCp2Cl2], bis(cyclopentadienyl) dichloro-V(IV)]
In vitro activity against cancer cell lines [6]: high in vitro activity

O=C([O-])COCC(=O)[O-].[O]=[V+2].c1ccc(-c2ccccn2)nc1 [VO(oda)(bpy)]
DNA cleavage (nuclease activity) (DNA): similar
Cytotoxicity, normal versus tumoral osteoblasts ([2]; ref León et al. [2012b]): statistically stronger in the tumoral cells

cis-Pt(NH3)2Cl2 [cisplatin]
water solubility [7]: 0.253 g/100 mL

O.O=C([O-])CN(CC(=O)[O-])CC(=O)[O-].[O]=[V+2] [[VO(nta)(H2O)]^−]
pH up to which the aqua complex is stable ([5]; aqueous solution, species distribution from the equilibrium constants): ≤ 5

2,2′-bipyridinium aqua-(2,2′,2′′-nitrilotriacetato)-oxo-vanadium monohydrate [[bpyH][VO(nta)(H2O)]H2O]
Logarithm of equilibrium constant, reaction 1: A + H3O^+ ⇋ AH^+ + H2O (AH^+ = bpyH^+ or phenH^+) [5]: 4.47 (0.03)^a
Logarithm of equilibrium constant, reaction 2 ([drawing 1]) [5]: 7.80 (0.06)
Logarithm of equilibrium constant, reaction 3 ([drawing 2]) [5]: −19.94 (0.06)

Cc1ccnc2c1ccc1c(C)ccnc12.Cc1ccnc2c1ccc1c(C)ccnc12.O=S(=O)([O-])[O-].[O]=[V+2] [Metvan]
Apoptosis [8]: induces apoptosis

CCc1occc(=O)c1[O][V](=[O])[O]c1c(CC)occc1=O [BEOV, VO(Etmaltolato)2]
Effect on plasma glucose levels [9]: lower plasma glucose levels

O=C([O-])COCC(=O)[O-].[O]=[V+2] [VO(oda)]
DNA cleavage (nuclease activity) (DNA): similar
Cellular proliferation ([1]; ref Rivadeneira et al. [2010]): inhibition of a cellular proliferation
Cytotoxicity, normal versus tumoral osteoblasts ([2]; ref Rivadeneira et al. [2010]): stronger in the normal (MC3T3E1) than in the tumoral (UMR106) osteoblasts
Cellular proliferation ([2]; ref Rivadeneira et al. [2010]): inhibition of a cellular proliferation

Cc1occc(=O)c1[O-].Cc1occc(=O)c1[O-].[O]=[V+2] [BMOV, VO(maltolato)2]
Effect on plasma glucose levels [9]: lower plasma glucose levels

From PMC5352783, “Characterization and cytotoxic effect of aqua-(2,2′,2′′-nitrilotriacetato)-oxo-vanadium salts on human osteosarcoma cells” (Biometals, 2017)
